Reference: the NIST ThermoML archive (doi:10.1016/j.jct.2005.07.009)

Columns and labels:
[1] = xn = mol fraction of the nth substance listed; settings: 298.15 K, 101 kPa, Liquid, Vibrating tube method
[2] = excess molar enthalpy (molar enthalpy of mixing); xn = mol fraction of the nth substance listed; settings: 298.15 K, 101 kPa, Liquid

BrCCCBr [1,3-dibromopropane] + CCCCC(=O)OCC
Settings	excess molar enthalpy [kJ/mol]	mass density [kg/m3]
[1], x2 = 0.0408	–	1905.88
[1], x2 = 0.0868	–	1836.07
[1], x2 = 0.1296	–	1773.38
[1], x2 = 0.177	–	1707.11
[1], x2 = 0.273	–	1579.99
[1], x2 = 0.325	–	1515.4
[1], x2 = 0.3803	–	1449.57
[1], x2 = 0.437	–	1385.12
[1], x2 = 0.5197	–	1296
[1], x2 = 0.6902	–	1128.6
[1], x2 = 0.7601	–	1065.64
[1], x2 = 0.8344	–	1001.96
[1], x2 = 0.9163	–	935.2
[2], x2 = 0.0175	0.0142	–
[2], x2 = 0.0382	0.0258	–
[2], x2 = 0.0611	0.0353	–
[2], x2 = 0.0911	0.0379	–
[2], x2 = 0.1259	0.0386	–
[2], x2 = 0.1645	0.0369	–
[2], x2 = 0.205	0.0328	–
[2], x2 = 0.247	0.0236	–
[2], x2 = 0.2878	0.0084	–
[2], x2 = 0.3293	-0.0101	–
[2], x2 = 0.3706	-0.0262	–
[2], x2 = 0.4062	-0.0388	–
[2], x2 = 0.4471	-0.0512	–
[2], x2 = 0.4985	-0.0643	–
[2], x2 = 0.5544	-0.0712	–
[2], x2 = 0.6183	-0.076	–
[2], x2 = 0.6862	-0.0787	–
[2], x2 = 0.7558	-0.0761	–
[2], x2 = 0.8251	-0.0654	–
[2], x2 = 0.8833	-0.0489	–
[2], x2 = 0.946	-0.0252	–

BrCCCCBr [1,4-dibromobutane] + CCOC(C)=O
Settings	excess molar enthalpy [kJ/mol]	mass density [kg/m3]
[1], x2 = 0.0713	–	1763.64
[1], x2 = 0.1362	–	1711.83
[1], x2 = 0.2057	–	1654.85
[1], x2 = 0.2657	–	1604.71
[1], x2 = 0.3922	–	1495.44
[1], x2 = 0.4539	–	1440.32
[1], x2 = 0.5154	–	1384.15
[1], x2 = 0.5749	–	1328.61
[1], x2 = 0.683	–	1224.74
[1], x2 = 0.7406	–	1167.52
[1], x2 = 0.7867	–	1121.03
[1], x2 = 0.8486	–	1057.13
[1], x2 = 0.9	–	1002.89
[1], x2 = 0.9494	–	949.81
[2], x2 = 0.0724	0.108	–
[2], x2 = 0.1477	0.174	–
[2], x2 = 0.2228	0.216	–
[2], x2 = 0.2954	0.234	–
[2], x2 = 0.3654	0.235	–
[2], x2 = 0.4273	0.225	–
[2], x2 = 0.4836	0.208	–
[2], x2 = 0.5346	0.187	–
[2], x2 = 0.5727	0.165	–
[2], x2 = 0.6226	0.138	–
[2], x2 = 0.6702	0.111	–
[2], x2 = 0.7257	0.0859	–
[2], x2 = 0.7826	0.06	–
[2], x2 = 0.8416	0.0388	–
[2], x2 = 0.8982	0.0218	–
[2], x2 = 0.9516	0.0101	–

BrCCCBr [1,3-dibromopropane] + CCCC(=O)OCC
Settings	excess molar enthalpy [kJ/mol]	mass density [kg/m3]
[1], x2 = 0.0436	–	1908.9
[1], x2 = 0.0835	–	1854.01
[1], x2 = 0.1381	–	1781.05
[1], x2 = 0.1859	–	1719.07
[1], x2 = 0.2926	–	1586.65
[1], x2 = 0.4637	–	1389.88
[1], x2 = 0.5238	–	1324.96
[1], x2 = 0.6494	–	1195.57
[1], x2 = 0.7131	–	1133.02
[1], x2 = 0.7811	–	1068.34
[1], x2 = 0.852	–	1003.1
[1], x2 = 0.9215	–	941.15
[2], x2 = 0.0406	0.0221	–
[2], x2 = 0.0875	0.0343	–
[2], x2 = 0.142	0.0379	–
[2], x2 = 0.1949	0.0348	–
[2], x2 = 0.2497	0.0241	–
[2], x2 = 0.3027	0.0073	–
[2], x2 = 0.3525	-0.0111	–
[2], x2 = 0.4005	-0.0306	–
[2], x2 = 0.4399	-0.0456	–
[2], x2 = 0.4453	-0.0477	–
[2], x2 = 0.4914	-0.0625	–
[2], x2 = 0.5444	-0.0715	–
[2], x2 = 0.6028	-0.0776	–
[2], x2 = 0.6668	-0.0794	–
[2], x2 = 0.7369	-0.0774	–
[2], x2 = 0.8067	-0.0673	–
[2], x2 = 0.8771	-0.0499	–

BrCCCCBr [1,4-dibromobutane] + CCCCC(=O)OCC
Settings	excess molar enthalpy [kJ/mol]	mass density [kg/m3]
[1], x2 = 0.0539	–	1762.5
[1], x2 = 0.109	–	1704.93
[1], x2 = 0.2129	–	1598.64
[1], x2 = 0.2678	–	1543.48
[1], x2 = 0.3262	–	1485.57
[1], x2 = 0.3815	–	1431.53
[1], x2 = 0.469	–	1347.31
[1], x2 = 0.5155	–	1303.25
[1], x2 = 0.554	–	1267.17
[1], x2 = 0.6207	–	1205.19
[1], x2 = 0.7373	–	1099.12
[1], x2 = 0.8643	–	986.49
[1], x2 = 0.9324	–	927.28
[2], x2 = 0.0901	0.0423	–
[2], x2 = 0.1832	0.0562	–
[2], x2 = 0.2717	0.0491	–
[2], x2 = 0.3528	0.0267	–
[2], x2 = 0.4123	-0.0083	–
[2], x2 = 0.4598	-0.0356	–
[2], x2 = 0.4897	-0.0495	–
[2], x2 = 0.5049	-0.0529	–
[2], x2 = 0.5621	-0.0714	–
[2], x2 = 0.6266	-0.0826	–
[2], x2 = 0.6967	-0.087	–
[2], x2 = 0.7722	-0.0824	–
[2], x2 = 0.852	-0.0668	–
[2], x2 = 0.9288	-0.0403	–

BrCCBr [1,2-dibromoethane] + CCOC=O
Settings	excess molar enthalpy [kJ/mol]	mass density [kg/m3]
[1], x2 = 0.062	–	2094.82
[1], x2 = 0.1228	–	2022.36
[1], x2 = 0.1867	–	1945.54
[1], x2 = 0.2494	–	1869.83
[1], x2 = 0.3088	–	1797.46
[1], x2 = 0.366	–	1727.27
[1], x2 = 0.4251	–	1654.13
[1], x2 = 0.4893	–	1574.29
[1], x2 = 0.5444	–	1505.3
[1], x2 = 0.6044	–	1429.44
[1], x2 = 0.6588	–	1360.3
[1], x2 = 0.7175	–	1285.15
[1], x2 = 0.8304	–	1138.86
[1], x2 = 0.8871	–	1064.61
[1], x2 = 0.9405	–	994.23
[2], x2 = 0.0568	0.12	–
[2], x2 = 0.1289	0.218	–
[2], x2 = 0.1965	0.295	–
[2], x2 = 0.2654	0.36	–
[2], x2 = 0.3304	0.4	–
[2], x2 = 0.3922	0.415	–
[2], x2 = 0.4464	0.413	–
[2], x2 = 0.497	0.404	–
[2], x2 = 0.5357	0.393	–
[2], x2 = 0.5433	0.375	–
[2], x2 = 0.5813	0.371	–
[2], x2 = 0.5831	0.342	–
[2], x2 = 0.6341	0.342	–
[2], x2 = 0.6895	0.302	–
[2], x2 = 0.7525	0.249	–
[2], x2 = 0.8186	0.191	–
[2], x2 = 0.8841	0.133	–
[2], x2 = 0.9442	0.0671	–

BrCCCCCBr [1,5-dibromopentane] + CCCCC(=O)OCC
Settings	excess molar enthalpy [kJ/mol]	mass density [kg/m3]
[1], x2 = 0.0539	–	1645.46
[1], x2 = 0.1105	–	1595.11
[1], x2 = 0.1636	–	1548.32
[1], x2 = 0.2206	–	1498.77
[1], x2 = 0.3289	–	1405.86
[1], x2 = 0.3899	–	1354.43
[1], x2 = 0.4455	–	1307.95
[1], x2 = 0.5024	–	1260.98
[1], x2 = 0.5632	–	1211.27
[1], x2 = 0.5935	–	1186.69
[1], x2 = 0.6792	–	1117.97
[1], x2 = 0.7412	–	1068.93
[1], x2 = 0.803	–	1020.6
[1], x2 = 0.8672	–	970.91
[1], x2 = 0.9294	–	923.31
[2], x2 = 0.0537	0.0294	–
[2], x2 = 0.1124	0.0503	–
[2], x2 = 0.1746	0.0661	–
[2], x2 = 0.2384	0.0746	–
[2], x2 = 0.3005	0.0749	–
[2], x2 = 0.3573	0.066	–
[2], x2 = 0.4121	0.05	–
[2], x2 = 0.4619	0.0282	–
[2], x2 = 0.5075	0.0041	–
[2], x2 = 0.5483	-0.0144	–
[2], x2 = 0.5745	-0.0237	–
[2], x2 = 0.6374	-0.0361	–
[2], x2 = 0.7074	-0.0419	–
[2], x2 = 0.7809	-0.0416	–
[2], x2 = 0.8572	-0.0355	–
[2], x2 = 0.9337	-0.0202	–

BrCCCCCBr [1,5-dibromopentane] + CCOC(=O)CC
Settings	excess molar enthalpy [kJ/mol]	mass density [kg/m3]
[1], x2 = 0.1344	–	1600.12
[1], x2 = 0.2009	–	1552.01
[1], x2 = 0.263	–	1506.12
[1], x2 = 0.3276	–	1457.5
[1], x2 = 0.3859	–	1412.68
[1], x2 = 0.4471	–	1364.74
[1], x2 = 0.5096	–	1314.84
[1], x2 = 0.6206	–	1223.48
[1], x2 = 0.6836	–	1170.2
[1], x2 = 0.7919	–	1075.76
[1], x2 = 0.8414	–	1031.42
[1], x2 = 0.8957	–	981.96
[2], x2 = 0.0603	0.0351	–
[2], x2 = 0.1247	0.0573	–
[2], x2 = 0.193	0.0719	–
[2], x2 = 0.261	0.0775	–
[2], x2 = 0.3249	0.0747	–
[2], x2 = 0.3861	0.0634	–
[2], x2 = 0.4412	0.0463	–
[2], x2 = 0.4896	0.0293	–
[2], x2 = 0.5244	0.0158	–
[2], x2 = 0.5365	0.0136	–
[2], x2 = 0.5747	-0.003	–
[2], x2 = 0.5773	-0.0044	–
[2], x2 = 0.6302	-0.015	–
[2], x2 = 0.6884	-0.022	–
[2], x2 = 0.752	-0.0263	–
[2], x2 = 0.8187	-0.0241	–
[2], x2 = 0.8848	-0.0193	–
[2], x2 = 0.9461	-0.0121	–

BrCCCCCCBr [1,6-dibromohexane] + CCCC(=O)OCC
Settings	excess molar enthalpy [kJ/mol]	mass density [kg/m3]
[1], x2 = 0.0741	–	1554.45
[1], x2 = 0.1407	–	1511.27
[1], x2 = 0.2026	–	1470.35
[1], x2 = 0.2669	–	1427.12
[1], x2 = 0.3292	–	1384.45
[1], x2 = 0.4493	–	1300.05
[1], x2 = 0.5934	–	1194.98
[1], x2 = 0.6267	–	1170.08
[1], x2 = 0.6854	–	1125.55
[1], x2 = 0.7302	–	1091.1
[1], x2 = 0.7843	–	1048.89
[1], x2 = 0.8939	–	961.41
[2], x2 = 0.0629	0.0274	–
[2], x2 = 0.1341	0.0438	–
[2], x2 = 0.2059	0.0555	–
[2], x2 = 0.2734	0.0584	–
[2], x2 = 0.3411	0.0571	–
[2], x2 = 0.4017	0.0519	–
[2], x2 = 0.4524	0.0432	–
[2], x2 = 0.4952	0.0333	–
[2], x2 = 0.5312	0.0235	–
[2], x2 = 0.5662	0.0129	–
[2], x2 = 0.6022	0.0008	–
[2], x2 = 0.6161	-0.0015	–
[2], x2 = 0.6589	-0.0089	–
[2], x2 = 0.7115	-0.0127	–
[2], x2 = 0.7699	-0.0153	–
[2], x2 = 0.8324	-0.0145	–
[2], x2 = 0.8956	-0.0089	–
[2], x2 = 0.9514	-0.0037	–
